Read-outs that look alike come from different tables or passages of the source.
Assays:
[1] = test system: A549 lung carcinoma cells; experiment: MTT-reduction cell viability assay, dark and after LED irradiation; assay type: cell-based, Human; conditions: for PI (Phototoxic index), 405 nm: IC50 dark / IC50 at 405 nm; for PI (Phototoxic index), 470 nm: IC50 dark / IC50 at 470 nm
Procedure: Human lung carcinoma A549 cell line (from ATCC, Manassas, VA, USA) was cultured in high glucose Dubecco’s Modified Eagle’s Medium (DMEM) supplemented with 5% fetal bovine serum (FBS) as well as L-glutamine and penicillin/streptomycin at 37 °C in a humidified atmosphere of 95% air and 5% CO2.
Cell metabolic activity was analyzed by an MTT-reduction assay to assess the A549 cell sensitivity to the complexes. Thus, 10^5 cells(A549)/mL were seeded in flat-bottom 96-well plates (100 µL/well) in complete medium and allowed to attach for 24 h. A stock solution of the complexes was prepared in DMSO 0.1 M. Subsequent dilutions of the different stock solutions from the complexes using DMEM were prepared. 100 µL/well were added to the cells, in concentrations ranging from 0.2 to 50 µM. each concentration was performed by quadruplicate. After 5 h of incubation with the complexes, duplicates of each concentration were irradiated with an LED lamp upon 405 and 470 nm with a light dose of 6.5 and 15.1 J/m^2, respectively, for 10 min. Before irradiation, culture medium was replaced with fresh medium in order to avoid interference with non-internalized complexes. Cells were cultured for a further 19 h. 10 µL of MTT (5 mg ml^−^1 in PBS) were added to each well and then further 2 h incubation was allowed at 37 °C. Finally, after removing the culture medium, DMSO (100 µL/well) was added to dissolve the formazan crystals. Multiskan EX 96-well multiscanner autoreader (Thermo Fisher Scientific, Waltham, MA, USA) was used to determine the optical density at 550 nm and IC50 was calculated. Each experiment was repeated at least three independent analyses.

[2] = Distribution coefficient n-octanol/water, shake-flask method; assay type: physicochemical; conditions: pH = 7.4, n-octanol/phosphate buffered saline, 298 K
Procedure: The n-octanol-water coefficient of complexes 1–4 and L1 and L2 were determined using a shake-flask method. A mixture of buffered-saline distilled water (100 mL, phosphate buffer [PO4^3−] = 10 mM, [NaCl] = 0.15 M, pH 7.4) and n-octanol (100 mL) was shaken for 72 h to allow saturation of both phases. Approximately 0.5 mg of the complexes or ligands werw dissolved in 5 mL of the aqueous phase and 5 mL of the organic phase were added, mixing for 10 min. The resulting emulsion was centrifuged to separate the phases. The concentration of the compounds in each phase was determined using UV absorbance spectroscopy at 298 K. logP7.4 was defined as log{[compound(organic phase)]/[compound(aqueous phase)]}.

A549 cells [3] = experiment: Cell morphology by phase contrast (inverted) microscopy; assay type: cell-based, Human; conditions: A549, 10 to 20 µM, 20 h
Procedure: Alterations in cell morphology and behavior as a consequence of the exposition to ligands and complexes were analyzed using an inverted microscope (Figure 5). […] Oppositely, complexes 1–4 were able to modify cell aspect. All of them triggered cytoplasmic vesicle formation, which was more remarkable for compounds 3 and 4, containing the bzq orthometallated ligand. Moreover, even though cell division still took place in the presence of all of them, it became patently clear that they have cytotoxic properties, being more evident for complexes 1 and 2.
Figure 5 Phase contrast microscopy images of A549 cells treated with L1, L2 and 1–4 at concentrations between 10 and 20 µM for 20 h. Black arrows point to apoptotic cells. Little black triangles show examples of cells containing cytoplasmic vesicles.

A549 cells [4] = experiment: ROS production measurement with dihydroethidium (DHE) by flow cytometry; assay type: cell-based, Human; conditions: A549, IC50 to ¼ IC50, dark and irradiation at 470 nm for 10 min
Procedure: Cells were incubated with the complex for 5 h and subsequently half of the experimental points were irradiated at 470 nm after replacing culture medium. Upon 19 h, cells were trypsinized, resuspended in 100 μL of a mixture of PBS and 2 μM of the dihydroethidium (DHE) probe, incubated at 37 °C in the dark for 15 min and diluted to 300 μL with PBS. Lastly, a total of 10,000 events were acquired on a FACSCalibur^TM flow cytometer and data were analyzed using the aforementioned softwares

A549 cells [5] = experiment: Cell cycle analysis, propidium iodide flow cytometry; assay type: cell-based, Human; conditions: for Cell distribution G0-G1 / Cell distribution G2-M / Cell distribution S: 5 h + 19 h
Procedure: 4 × 105. […] Thereupon, cell culture was changed, and half of the experimental points were irradiated at 470 nm. After 19 h in culture, cells were trypsinized, washed twice with PBS, fixed with cold 70% ethanol (v/v) by vortexing and stored at −20 °C for at least 24 h. After that, cells were wash with cold PBS and stained with 500 μL of a solution of propidium iodide (PI) and RNase (Immunostep, Salamanca, Spain) for 20 min at rt in the dark. Finally, a total of 10,000 cells were acquired on a FACSCalibur^TM flow cytometer and data were analyzed using the aforementioned softwares.

A549 cells [6] = experiment: Cytotoxicity assay by flow cytometry, Annexin V-DY634 / 7-AAD double staining; assay type: cell-based, Human; conditions: A549, dark and irradiation at 470 nm
Procedure: Necrotic and apoptotic cell death was determined by measuring cell membrane permeabilization and phosphatidylserine exposure on cell surface in A549 cells, respectively. 10^5 cells/well were seeded in flat-bottom, 12-well plates (1 mL/well) in complete medium and left 12 h to attach to the plates. […] After 19 h, cells were trypsinized and thereafter resuspended in 50 μL of a mixture of DY634-conjugated Annexin V, Annexin-binding buffer (ABB; 140 mM NaCl, 2.5 mM CaCl2, 10 mM HEPES/NaOH pH 7.4) and 7-amino-actinomycin D (7-AAD). After incubation for further 15 min at rt in dark, cells were diluted to 300 μL with ABB. A total of 10,000 cells were acquired on a FACSCalibur^TM flow cytometer (BD Biosciences, San Jose, CA, USA) and cell death analysis was performed using Flowjo 7.6.1 (Becton Dickinson (BD), Franklin Lakes, NJ, USA), CellQuest Pro (BD Biosciences) and GraphPad Prism 8 (GraphPad Software, San Diego, CA, USA) softwares.

[7] = 5 h incubation, irradiation 10 min at 405 nm (6.5 J/m^2), further 19 h, read-out: IC50(λexc 405 nm)
[8] = 5 h incubation, irradiation 10 min at 470 nm (15.1 J/m^2), further 19 h, read-out: IC50(λexc 470 nm)
[9] = 24 h incubation, no irradiation, read-out: IC50 (DARK)
[10] = Homo sapiens, light or radiation study, 24 h incubation, no irradiation, read-out: IC50 (DARK)
[11] = A549, irradiation at 470 nm, 0.0975 μM (25% IC50)

Row | Compound | IC50 [1, 7] | IC50 [1, 8] | IC50 [1, 9] | PI (Phototoxic index), 405 nm [1] | PI (Phototoxic index), 470 nm [1] | logP(Oct/W) [2] | IC50 [1, 10] | Alterations in cell morphology (A549 cells [3]) | logP [2] | also measured
1 | [Cl-].c1ccc(-c2cccc[c]2[Ir+][c]2ccccc2-c2ccccn2)nc1.c1ccc(N(c2ccccn2)c2c3ccccc3cc3ccccc23)nc1 [Complex 1] | 1160 ± 60 nM | 180 ± 50 nM | 13600 ± 80 nM | 11.7 | 75.5 | 0.75 |  |  |  | 
2 | [Cl-].c1ccc(N(c2ccccn2)c2c3ccccc3cc3ccccc23)nc1.c1cnc2c(c1)ccc1ccc[c]([Ir+][c]3cccc4ccc5cccnc5c34)c12 [Complex 3] | 1350 ± 80 nM | 400 ± 80 nM | 18900 ± 120 nM | 14.0 | 47.2 | 1.73 |  |  |  | 
3 | c1ccc(N(c2ccccn2)c2c3ccccc3cc3ccccc23)nc1 [Complex L1] |  |  |  |  |  |  | > 50000 nM | apoptotic or necrotic cells were not detected | 1.2 | 
4 | c1ccc(N(c2ccccn2)c2c3ccccc3nc3ccccc23)nc1 [Complex L2] |  |  |  |  |  |  | > 50000 nM | apoptotic or necrotic cells were not detected | 0.59 | 
5 | [Ir(bzq)2(dpa-acr)]^+ [Complex 4] | > 5000 nM | 390 ± 90 nM | 43380 ± 140 nM |  |  | 1.24 |  |  |  | ROS generation (DHE) (A549 cells [4]): concentration-dependent ROS generation; Cell distribution G0-G1 (A549 cells [5]; A549, dark, 10.9 μM (25% IC50)): 72.4%; Cell distribution G2-M (A549 cells [5]; A549, dark, 10.9 μM (25% IC50)): 13.5%; Cell distribution S (A549 cells [5]; A549, dark, 10.9 μM (25% IC50)): 14.1%; Cell distribution G0-G1 (A549 cells [5]; [11]): 73.7%; Cell distribution G2-M (A549 cells [5]; [11]): 14.0%; Cell distribution S (A549 cells [5]; [11]): 12.3%; Cell cycle arrest (A549 cells [5]; A549, ¼ IC50, dark and irradiation at 470 nm): not capable of stopping the cell cycle at any of its phases; Cell death pathway (A549 cells [6]): triggers the apoptotic pathway
